Test results: patent publication US20230233540A1, “COMBINATION OF ANTIBODY-DRUG CONJUGATE AND CDK9 INHIBITOR” (AstraZeneca UK Limited, priority 2020, published 2023)

Tested on: HCC1954 breast cancer cells (HER2+ cell line)
Experiment: Antitumor test, subcutaneous HCC1954 breast cancer xenograft, tumor growth inhibition
Type: in vivo, CB17-SCID mice
Conditions: AZD4573 monotherapy in the HCC1954 model
Method: Tumor volume was monitored via caliper measurements, and mice were randomized based on mean tumor size. […] All AZD4573 doses were administered IP, 2 hours apart. A BID regimen was used for 10 mg/kg dose, and TID was used for 5 mg/kg dose. AZD4573 dosing was given weekly thereafter for a total of 3 cycles.
Data represents change in tumor volume over time for treatment groups.

Question: For CC(=O)N[C@@H]1CCC[C@H](C(=O)Nc2cc(-c3cnn4c3CC(C)(C)C4)c(Cl)cn2)C1 [AZD4573, (1S,3R)-3-acetamido-N-(5-chloro-4-(5,5-dimethyl-5,6-dihydro-4H-pyrrolo[1,2-b]pyrazol-3-yl)pyridin-2-yl)cyclohexanecarboxamide], which tumor growth control is on record?
Answer: minimal tumor growth control
